Assay results as given in patent US20240366598A1, “GLUCOSE-DEPENDENT INSULINOTROPIC POLYPEPTIDE RECEPTOR ANTAGONISTS AND USES THEREOF” (Pfizer Inc., priority 2023, published 2024).
Where a name gives a salt, the structure may show the parent alone.

Biological target: T1, human Glucose-dependent Insulinotropic Polypeptide Receptor (hGIPR) (Homo sapiens, UniProt P48546)
T1 sequence (P48546 22-466): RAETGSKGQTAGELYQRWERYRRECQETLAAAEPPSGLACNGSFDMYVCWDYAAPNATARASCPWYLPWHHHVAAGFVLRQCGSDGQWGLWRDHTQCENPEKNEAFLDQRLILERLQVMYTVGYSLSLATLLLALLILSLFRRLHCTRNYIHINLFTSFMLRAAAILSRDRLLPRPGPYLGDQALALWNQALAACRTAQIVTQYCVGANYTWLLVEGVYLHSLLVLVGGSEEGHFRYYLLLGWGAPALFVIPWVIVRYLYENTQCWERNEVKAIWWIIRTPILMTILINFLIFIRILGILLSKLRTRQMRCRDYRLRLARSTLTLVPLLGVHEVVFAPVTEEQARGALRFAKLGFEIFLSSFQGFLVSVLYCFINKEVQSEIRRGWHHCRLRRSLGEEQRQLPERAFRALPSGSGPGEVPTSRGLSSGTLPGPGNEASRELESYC
Assay: Functional in vitro GIPR antagonist potency assay (cAMP HTRF, CHO-K1 cells stably expressing hGIPR, hGIP stimulation at about EC80)
Format: cell-based
Settings: geometric mean, hGIP at estimated EC80, examples marked ^2: overall geometric mean of multiple forms (including salts) tested
In short: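 HTRF quantification of cAMP after stimulation with hGIP at an estimated EC80 for 30 min at 37 °C. Before stimulation, hGIPR-expressing CHO-K1 cells were exposed 2 h to test compound in IBMX-containing buffer, with 0.5% DMSO final. Percent effect is referenced to agonist alone (0%) and to 80 μM of a reference antagonist (100%), and runs required the agonist concentration to fall within the on-the-day EC50–EC90.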

Row | SMILES | IC50
1 | O=C(O)c1ccc(-c2ccc(NC(=O)[C@H]3CCCN3C(=O)Nc3ccc(C(F)(F)F)cc3)cc2)cc1F [Example 204, 3-fluoro-4′-[(1-{[4-(trifluoromethyl)phenyl]carbamoyl}-D-prolyl)amino][1,1′-biphenyl]-4-carboxylic acid] | 14 nM
2 | CC(C)c1ccc(NC(=O)N2CCC[C@@H]2C(=O)Nc2ccc(-c3ccnc(C(=O)O)c3)cc2)cc1 [Example 14, ammonium 4-{4-[(1-{[4-(propan-2-yl)phenyl]carbamoyl}-D-prolyl)amino]phenyl}pyridine-2-carboxylate] | 88 nM
3 | O=C(O)c1ccc(-c2ccc(NC(=O)[C@H]3CCCN3C(=O)Nc3ccc(C4CCC4)cc3)cc2)cc1 [Example 23, 4′-({1-[(4-Cyclobutylphenyl)carbamoyl]-D-prolyl}amino)[1,1′-biphenyl]-4-carboxylic acid] | 2.7 nM
4 | CC(C)c1ccc(NC(=O)N2CC[C@H](C)[C@@H]2C(=O)Nc2ccc(-c3ccc(C(=O)O)cc3)cc2)cc1 (single isomer, unassigned) [Example 34, 4′-{[(3S)-3-Methyl-1-{[4-(propan-2-yl)phenyl]carbamoyl}-D-prolyl]amino}[1,1′-biphenyl]-4-carboxylic acid or 4′-{[(3R)-3-Methyl-1-{[4-(propan-2-yl)phenyl]carbamoyl}-L-prolyl]amino}[1,1′-biphenyl]-4-carboxylic acid] | 10 nM
5 | Cc1cc(C2CC2)ccc1NC(=O)N1CCC[C@@H]1C(=O)Nc1ccc(-c2ccc(C(=O)O)cc2)cc1 [Example 142, 4′-({1-[(4-cyclopropyl-2-methylphenyl)carbamoyl]-D-prolyl}amino)[1,1′-biphenyl]-4-carboxylic acid] | 130 nM
6 | CC(C)c1ccc(NC(=O)N2CCC[C@@H]2C(=O)Nc2ccc(-c3ccc(C(=O)O)cc3Cl)cc2)cc1 [Example 79, 2-chloro-4′-[(1-{[4-(propan-2-yl)phenyl]carbamoyl}-D-prolyl)amino][1,1′-biphenyl]-4-carboxylic acid] | 15 nM
7 | CC(C)c1ccc(NC(=O)N2C[C@H]3C[C@H]3[C@@H]2C(=O)Nc2ccc(-c3ccc(C(=O)O)cc3)cn2)cc1 [Example 123, 4-(6-{[(1R,2R,5S)-3-{[4-(propan-2-yl)phenyl]carbamoyl}-3-azabicyclo[3.1.0]hexane-2-carbonyl]amino}pyridin-3-yl)benzoic acid] | 11 nM
8 | CC(C)(C)c1ccc(NC(=O)N2CCC[C@@H]2C(=O)Nc2ccc(-c3ccc(C(=O)O)cc3)cc2)cc1 [Example 119, 4′-({1-[(4-tert-butylphenyl)carbamoyl]-D-prolyl}amino)[1,1′-biphenyl]-4-carboxylic acid] | 24 nM
9 | CC(C)c1ccc(NC(=O)N2CCC[C@@H]2C(=O)Nc2ccc(-c3ccc(C(=O)O)cc3)cc2)cc1 [Example 4, 4′-[(1-{[4-(Propan-2-yl)phenyl]carbamoyl}-D-prolyl)amino][1,1′-biphenyl]-4-carboxylic acid] | 4.1 nM
10 | CC(C)c1ncc(NC(=O)N2CCC[C@@H]2C(=O)Nc2ccc(-c3ccc(C(=O)O)cc3)cc2)cn1 [Example 112, 4′-[(1-{[2-(propan-2-yl)pyrimidin-5-yl]carbamoyl}-D-prolyl)amino][1,1′-biphenyl]-4-carboxylic acid] | 840 nM
11 | CC(C)c1ccc(NC(=O)N2CCC[C@@H]2C(=O)Nc2ccc(-c3cccc(C(=O)O)c3)nc2)cc1 [Example 78, 3-{5-[(1-{[4-(propan-2-yl)phenyl]carbamoyl}-D-prolyl)amino]pyridin-2-yl}benzoic acid] | 145 nM
12 | Cc1cc(NC(=O)N2CCC[C@@H]2C(=O)Nc2ccc(-c3ccc(C(=O)O)cn3)cc2)ccc1C(C)C [Example 180, 6-{4-[(1-{[3-methyl-4-(propan-2-yl)phenyl]carbamoyl}-D-prolyl)amino]phenyl}pyridine-3-carboxylic acid] | 53 nM
13 | Cc1cc(NC(=O)N2CCC[C@@H]2C(=O)Nc2ccc(-c3ccc(C(=O)O)cc3)cc2)ccc1C(F)(F)F [Example 106, 4′-[(1-{[3-methyl-4-(trifluoromethyl)phenyl]carbamoyl}-D-prolyl)amino][1,1′-biphenyl]-4-carboxylic acid] | 3 nM
14 | O=C(O)c1ccc(-c2ccc(NC(=O)[C@H]3CCCN3C(=O)NCc3ccc(Cl)cc3F)cc2)cc1 [Example 132, 4′-[(1-{[(4-chloro-2-fluorophenyl)methyl]carbamoyl}-D-prolyl)amino][1,1′-biphenyl]-4-carboxylic acid] | 77 nM
15 | COc1nc(C(=O)O)ccc1-c1ccc(NC(=O)[C@H]2CCCN2C(=O)Nc2ccc(C(C)C)cc2)cc1 [Example 120, 6-methoxy-5-{4-[(1-{[4-(propan-2-yl)phenyl]carbamoyl}-D-prolyl)amino]phenyl}pyridine-2-carboxylic acid] | 26 nM
16 | CC(C)c1ccc(CNC(=O)N2CCC[C@@H]2C(=O)Nc2ccc(-c3ccc(C(=O)O)c(F)c3)cn2)cc1 [Example 189, 2-fluoro-4-(6-{[1-({[4-(propan-2-yl)phenyl]methyl}carbamoyl)-D-prolyl]amino}pyridin-3-yl)benzoic acid] | 42 nM
17 | CC(C)c1ccc(NC(=O)N2CCC[C@@H]2C(=O)Nc2ccc(-c3cccc(O)c3F)cc2)cc1 [Example 66, (2R)-N^2-(2′-fluoro-3′-hydroxy[1,1′-biphenyl]-4-yl)-N^1-[4-(propan-2-yl)phenyl]pyrrolidine-1,2-dicarboxamide] | 390 nM
18 | O=C(O)c1ccc(-c2ccc(NC(=O)[C@H]3CCCN3C(=O)Nc3cc(F)c(C(F)(F)F)c(F)c3)cc2)cc1 [Example 128, 4′-[(1-{[3,5-difluoro-4-(trifluoromethyl)phenyl]carbamoyl}-D-prolyl)amino][1,1′-biphenyl]-4-carboxylic acid] | 9.3 nM
19 | Cc1nc(C(=O)O)ccc1-c1ccc(NC(=O)[C@H]2CCCN2C(=O)Nc2ccc(C(F)(F)F)cc2)cc1 [Example 169, 6-methyl-5-{4-[(1-{[4-(trifluoromethyl)phenyl]carbamoyl}-D-prolyl)amino]phenyl}pyridine-2-carboxylic acid] | 49 nM
20 | Cc1cc(-c2ccc(NC(=O)[C@H]3CCCN3C(=O)Nc3ccc(C(C)C)c(C)c3)nc2)ccc1C(=O)O [Example 185, 2-methyl-4-{6-[(1-{[3-methyl-4-(propan-2-yl)phenyl]carbamoyl}-D-prolyl)amino]pyridin-3-yl}benzoic acid] | 4.2 nM
21 | O=C(O)c1ccc(-c2ccc(NC(=O)[C@H]3CCCN3C(=O)Nc3ccc(C4CC4)cc3F)cc2)cc1 [Example 140, 4′-({1-[(4-cyclopropyl-2-fluorophenyl)carbamoyl]-D-prolyl}amino)[1,1′-biphenyl]-4-carboxylic acid] | 67 nM
22 | CC(C)c1ccc(NC(=O)N2CCC[C@@H]2C(=O)Nc2ccc(-c3cc(F)cc(C(=O)O)c3)cc2)cc1 [Example 85, 5-fluoro-4′-[(1-{[4-(propan-2-yl)phenyl]carbamoyl}-D-prolyl)amino][1,1′-biphenyl]-3-carboxylic acid] | 260 nM
23 | CC(C)c1ccc(NC(=O)N2CCC[C@@H]2C(=O)Nc2ccc(-c3ccc(C(=O)O)cc3)nc2)cc1 [Example 18, 4-{5-[(1-{[4-(Propan-2-yl)phenyl]carbamoyl}-D-prolyl)amino]pyridin-2-yl}benzoic acid] | 15 nM
24 | Cc1cc(NC(=O)N2CCC[C@@H]2C(=O)Nc2ccc(-c3ccc(C(=O)O)cc3)cc2)ccc1C1CC1 [Example 144, 4′-({1-[(4-cyclopropyl-3-methylphenyl)carbamoyl]-D-prolyl}amino)[1,1′-biphenyl]-4-carboxylic acid] | 6.1 nM
25 | Cc1cc(NC(=O)N2CCC[C@@H]2C(=O)Nc2ccc(-c3cccc(C(=O)O)c3)cn2)ncc1C(F)(F)F [Example 202, 3-{6-[(1-{[4-methyl-5-(trifluoromethyl)pyridin-2-yl]carbamoyl}-D-prolyl)amino]pyridin-3-yl}benzoic acid] | 22 nM
26 | COc1cc(-c2ccc(NC(=O)[C@H]3CCCN3C(=O)Nc3ccc(C(F)(F)F)cc3)cc2)ccc1C(=O)O [Example 170, 3-methoxy-4′-[(1-{[4-(trifluoromethyl)phenyl]carbamoyl}-D-prolyl)amino][1,1′-biphenyl]-4-carboxylic acid] | 40 nM
27 | Cc1ccc(C(=O)O)cc1-c1ccc(NC(=O)[C@H]2CCCN2C(=O)Nc2ccc(C(C)C)cc2)cc1 [Example 94, 6-methyl-4′-[(1-{[4-(propan-2-yl)phenyl]carbamoyl}-D-prolyl)amino][1,1′-biphenyl]-3-carboxylic acid] | 190 nM
28 | CC(C)c1ccc(NC(=O)N2CCC[C@@H]2C(=O)Nc2ccc(-c3ccc(C(=O)O)cc3)cc2)cn1 [Example 62, 4′-[(1-{[6-(propan-2-yl)pyridin-3-yl]carbamoyl}-D-prolyl)amino][1,1′-biphenyl]-4-carboxylic acid] | 110 nM
29 | Cc1cc(NC(=O)[C@H]2CCCN2C(=O)Nc2ccc(C(C)C)cc2)cc2ccc(C(=O)O)nc12 [Example 11, 8-methyl-6-[(1-{[4-(propan-2-yl)phenyl]carbamoyl}-D-prolyl)amino]quinoline-2-carboxylic acid, trifluoroacetate salt] | 180 nM
30 | O=C(O)c1ccc(-c2ccc(NC(=O)[C@H]3CCCN3C(=O)Nc3ccc(C4CCC4)cc3)cc2)cn1 [Example 211, 5-[4-({1-[(4-cyclobutylphenyl)carbamoyl]-D-prolyl}amino)phenyl]pyridine-2-carboxylic acid] | 7 nM
